System: mouse ear
Test: mouse ear swelling test (MEST)
Type: in vivo
Conditions: BALB/c mouse
Protocol: To evaluate an effect of relieving skin irritation caused by a dye and for preventing or inhibiting inflammation caused by a dye, the mouse ear swelling test (MEST) using a mouse is carried out in the manner as described below.
A 7 weeks-aged mouse subject (BALC/c) is obtained and subjected to quarantine and adaptation for a period of 10 days. Then, the mouse is dehaired at its abdominal portion, and a main ingredient of dye, i.e. 3% paraphenylene diamine (PPD) is applied thereto in combination with a monosaccharide (glucose, galactose or fructose) or disaccharide (maltose, lactose or sucrose) for 7 days three times a day. As a control, each of dimethyl sulfoxide (DMSO) solvent and 3% PPD is applied. Twenty-four hours after the final application, the mouse ear is weighed. After weighing, the mouse ear is fixed in formalin and subjected to hematoxylin & eosin (H&E) staining for a histopathological test. Then, the thickness of the mouse ear is determined. Herein, the weight of the mouse ear is measured by biopsy of the ear of the mouse subject (Balb/c), to which each test sample is applied, using a 6 mm punch. The thickness of the mouse ear is determined by measuring the thickness of the ear of the mouse subject (Balb/c) stained after weighing the mouse ear weight by using a microscope.

Compound `Nc1ccc(N)cc1` [PPD (3%), paraphenylene diamine] has an Ear thickness (3% PPD alone or in combination with saccharide applied for 7 days three times a day, formalin-fixed, H&E stained ear measured by microscope) of 433.28 ± 11.57 μm and an Ear weight (3% PPD alone or in combination with saccharide applied to dehaired abdominal portion for 7 days three times a day, ear weighed 24 h after final application, 6 mm punch biopsy) of 14.74 ± 0.23 mg.

Reference: US20130225522A1, “COMPOSITION FOR RELIEVING STIMULUS OF SKIN CAUSED BY DYE” (Amorepacific Corporation, priority 2009, published 2013)
